The values that follow come from patent publication US20230357162A1, “COMPOUNDS, COMPOSITIONS AND METHODS” (Denali Therapeutics Inc., priority 2020, published 2023).

This test relates to IL-1β secretion, THP-1 cells. Put plainly: IL-1β secretion assay in PMA-differentiated THP-1 cells stimulated with LPS and nigericin (ELISA readout). To be noted: Homo sapiens, THP-1, inhibition of IL-1β secretion, 25 ng/mL LPS then nigericin. In kind it is cell-based. A digest of the protocol:
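THP-1 cells differentiated with 5 ng/mL PMA for 40 h, primed in serum-free medium with 25 ng/mL LPS for 2 h, then compound (0.5% DMSO) for 1 h before nigericin for 2 h at 37°C. Supernatant IL-1β quantified by ELISA; normalized to high (LPS + 5 µM nigericin) and low (LPS only) controls.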
On the technique in general: In an ELISA, binding on a coated surface is turned into a signal by an enzyme label.

Where a name gives a salt, the structure may show the parent alone.

With `CC(C)c1nn(CC(=O)Nc2ccnc(C3CC3)n2)c(=O)c2ccc(Br)cc12` [Example 51, 2-(6-bromo-1-oxo-4-propan-2-ylphthalazin-2-yl)-N-(2-cyclopropylpyrimidin-4-yl)acetamide], the IC50 runs as follows: (class column of Table 3) < 10 µM; (numeric column of Table 3) 0.863 µM.

Consider `CSc1nn(CC(=O)Nc2ncc(F)cn2)c(=O)c2ccc(Br)cc12` [Example 149, 2-(6-bromo-4-methylsulfanyl-1-oxophthalazin-2-yl)-N-(5-fluoropyrimidin-2-yl)acetamide], for which the IC50 is, setting by setting: (class column of Table 3) < 10 µM; (numeric column of Table 3) 0.782 µM.

As to `CC(C)c1nn(CC(=O)Nc2cc(C(F)(F)F)nn2C)c(=O)c2ccc(Br)cc12` [Example 116, 2-(6-bromo-1-oxo-4-propan-2-ylphthalazin-2-yl)-N-[2-methyl-5-(trifluoromethyl)pyrazol-3-yl]acetamide], the IC50 is, setting by setting: (class column of Table 3) < 10 µM; (numeric column of Table 3) 4.6 µM.

In the case of `CC(C)c1nn(CC(=O)N2CCCc3ccccc32)c(=O)c2ccc(Br)cc12` [Example 73, 6-bromo-2-[2-(3,4-dihydro-2H-quinolin-1-yl)-2-oxoethyl]-4-propan-2-ylphthalazin-1-one], the IC50 (class column of Table 3) was < 10 µM and half-maximal inhibition (numeric column of Table 3) (IC50) required 9.63 µM.

`CC(C)c1nn(CC(=O)NCC2CCCN2C(=O)OC(C)(C)C)c(=O)c2ccc(Br)cc12` (centres unmarked) [Example 107, tert-butyl 2-[[[2-(6-bromo-4-isopropyl-1-oxo-phthalazin-2-yl)acetyl]amino]methyl]pyrrolidine-1-carboxylate]: the IC50 reads like this: (class column of Table 3) > 15 µM; (numeric column of Table 3) > 50 µM.

With `CC(C)c1nn(CC(=O)NCC2CN(C)CCO2)c(=O)c2ccc(Br)cc12` (centres unmarked) [Example 65, 2-(6-bromo-1-oxo-4-propan-2-ylphthalazin-2-yl)-N-[(4-methylmorpholin-2-yl)methyl]acetamide], the IC50 by setting is: (class column of Table 3) > 15 µM; (numeric column of Table 3) 22.7 µM.

Regarding `CC(C)c1nn(CC(=O)Nc2ncc(Cl)cc2F)c(=O)c2ccc(Br)cc12` [Example 68, 2-(6-bromo-1-oxo-4-propan-2-ylphthalazin-2-yl)-N-(5-chloro-3-fluoropyridin-2-yl)acetamide], the IC50 reads like this: (class column of Table 3) < 10 µM; (numeric column of Table 3) 0.11 µM.

Turning to `CC(C)c1nn(CC(=O)Nc2ncncc2F)c(=O)c2ccc(C3CC3)cc12` [Example 19, 2-(6-cyclopropyl-1-oxo-4-propan-2-ylphthalazin-2-yl)-N-(5-fluoropyrimidin-4-yl)acetamide], the 50% inhibitory concentration (IC50) by setting is: (class column of Table 3) < 10 µM; (numeric column of Table 3) 0.334 µM.

Regarding `CC(C)c1nn(CC(=O)Nc2ncc(F)cc2Cl)c(=O)c2ccc(Br)cc12` [Example 115, 2-(6-bromo-1-oxo-4-propan-2-ylphthalazin-2-yl)-N-(3-chloro-5-fluoropyridin-2-yl)acetamide], the IC50 was < 10 µM (class column of Table 3) and 1.53 µM (numeric column of Table 3).

Take `O=C(Cn1nc(C(F)F)c2cc(Br)ccc2c1=O)Nc1ncc(Cl)cn1` [Example 135]: the IC50 runs as follows: (class column of Table 3) < 10 µM; (numeric column of Table 3) 0.424 µM.

For the compound `CC(C)c1nn(CC(=O)Nc2ncncc2F)c(=O)c2ccc(Br)nc12` [Example 22, 2-(2-bromo-5-oxo-8-propan-2-ylpyrido[2,3-d]pyridazin-6-yl)-N-(5-fluoropyrimidin-4-yl)acetamide], the IC50 (class column of Table 3) was < 10 µM and 0.398 µM corresponded to half-maximal inhibition (numeric column of Table 3) (IC50).

Turning to `CC(C)c1nn(CC(=O)Nc2ccc(Cl)nc2)c(=O)c2ccc(Br)cc12` [Example 30, 2-(6-bromo-1-oxo-4-propan-2-ylphthalazin-2-yl)-N-(6-chloropyridin-3-yl)acetamide], the IC50 is, setting by setting: (class column of Table 3) < 10 µM; (numeric column of Table 3) 0.519 µM.

As to `O=C(Cn1nc([C@H]2C[C@@H]2F)c2cc(Br)ccc2c1=O)Nc1ncc(F)cn1` [Example 167, 2-[6-bromo-4-[2-trans-fluorocyclopropyl]-1-oxophthalazin-2-yl]-N-(5-fluoropyrimidin-2-yl)acetamide], the IC50 (class column of Table 3) is > 15 µM and 16.1 µM corresponded to half-maximal inhibition (numeric column of Table 3) (IC50).

For `O=C(Cn1nc(OC2CC2)c2cc(Br)ccc2c1=O)N[C@@H]1CCCN(C2CC2)C1` [Example 178], the IC50 runs as follows: (class column of Table 3) < 10 µM; (numeric column of Table 3) 0.14 µM.

Turning to `CC(C)c1nn(CC(=O)Nc2c(F)cnn2C)c(=O)c2ccc(Br)cc12` [Example 50, 2-(6-bromo-1-oxo-4-propan-2-ylphthalazin-2-yl)-N-(4-fluoro-2-methylpyrazol-3-yl)acetamide], the IC50 runs as follows: (class column of Table 3) > 15 µM; (numeric column of Table 3) 27.5 µM.

Regarding `CC(C)c1nn(CC(=O)NCC2CCC2)c(=O)c2ccc(Br)cc12` [Example 127, 2-(6-bromo-1-oxo-4-propan-2-ylphthalazin-2-yl)-N-(cyclobutylmethyl)acetamide], the IC50 reads like this: (class column of Table 3) < 10 µM; (numeric column of Table 3) 1.05 µM.

For the compound `CC(C)c1nn(CC(=O)NC2CC3(COC3)C2)c(=O)c2ccc(Br)cc12` [Example 54, 2-(6-bromo-1-oxo-4-propan-2-ylphthalazin-2-yl)-N-(2-oxaspiro[3.3]heptan-6-yl)acetamide], the IC50 is < 10 µM (class column of Table 3) and 0.349 µM (numeric column of Table 3).

Turning to `CSc1ccc2c(=O)n(CC(=O)Nc3ncncc3F)nc(C(C)C)c2n1` [Example 23, N-(5-fluoropyrimidin-4-yl)-2-(2-methylsulfanyl-5-oxo-8-propan-2-ylpyrido[2,3-d]pyridazin-6-yl)acetamide], the IC50 reads like this: (class column of Table 3) < 10 µM; (numeric column of Table 3) 2.07 µM.

Consider `CC(O)c1nn(CC(=O)Nc2ncccn2)c(=O)c2ccc(Br)cc12` (single isomer, unassigned) [Example 101, 2-(6-bromo-4-(1-hydroxyethyl)-1-oxophthalazin-2(1H)-yl)-N-(pyrimidin-2-yl)acetamide], for which the IC50 is < 10 µM (class column of Table 3) and 1.45 µM (numeric column of Table 3).

As to `O=C(Cn1nc(Br)c2cc(Br)ccc2c1=O)Nc1ncc(F)cn1` [Example 181, 2-(4,6-Dibromo-1-Oxophthalazin-2-yl)-N-(5-Fluoropyrimidin-2-yl)Acetamide], the IC50 by setting is: (class column of Table 3) < 10 µM; (numeric column of Table 3) 0.23 µM.

Consider `COc1ccc(NC(=O)Cn2nc(C(C)C)c3cc(Br)ccc3c2=O)cn1` [Example 29, 2-(6-bromo-1-oxo-4-propan-2-ylphthalazin-2-yl)-N-(6-methoxypyridin-3-yl)acetamide], for which the IC50 was < 10 µM (class column of Table 3) and 0.286 µM (numeric column of Table 3).

For `CC(C)c1nn(CC(=O)NCC2CCCN2)c(=O)c2ccc(Br)cc12` (centres unmarked) [Example 108, 2-(6-bromo-1-oxo-4-propan-2-ylphthalazin-2-yl)-N-(pyrrolidin-2-ylmethyl)acetamide HCl salt], the 50% inhibitory concentration (IC50) (class column of Table 3) is < 10 µM and the IC50 (numeric column of Table 3) was 8.23 µM.

For `CC(C)c1nn(CC(=O)NC2CCOCC2)c(=O)c2ccc(Br)cc12` [Example 53, 2-(6-bromo-1-oxo-4-propan-2-ylphthalazin-2-yl)-N-(oxan-4-yl)acetamide], the IC50 was < 10 µM (class column of Table 3) and 1.13 µM (numeric column of Table 3).

Consider `COc1c(Br)ccc2c(=O)n(CC(=O)Nc3ncc(F)cn3)nc(Cl)c12` [Example 141, 2-(6-bromo-4-chloro-5-methoxy-1-oxophthalazin-2-yl)-N-(5-fluoropyrimidin-2-yl)acetamide], for which the IC50 reads like this: (class column of Table 3) < 10 µM; (numeric column of Table 3) 1.2 µM.

Consider `CC(C)c1nn(CC(=O)N[C@H]2C[C@@](C)(O)C2)c(=O)c2ccc(Br)cc12` [Example 1, 2-(6-Bromo-4-isopropyl-1-oxophthalazin-2(1H)-yl)-N-(cis-3-hydroxy-3-methylcyclobutyl)acetamide], for which the IC50 runs as follows: (class column of Table 3) < 10 µM; (numeric column of Table 3) 0.03 µM.

`CC1(C)CC(Oc2nn(CC(=O)Nc3ncc(F)cn3)c(=O)c3ccc(Br)cc23)C1` [Example 156, 2-[6-bromo-4-(3,3-dimethylcyclobutoxy)-1-oxo-phthalazin-2-yl]-N-(5-fluoropyrimidin-2-yl)acetamide]: the IC50 reads like this: (class column of Table 3) < 10 µM; (numeric column of Table 3) 0.07 µM.

Take `CC(C)c1nn(CC(=O)NC2CN(C(=O)OC(C)(C)C)CC(F)(F)C2)c(=O)c2ccc(Br)cc12` (centres unmarked) [Example 10, tert-Butyl-5-[[2-(6-bromo-4-isopropyl-1-oxo-phthalazin-2-yl)acetyl]amino]-3,3-difluoro-piperidine-1-carboxylate]: the IC50 was < 10 µM (class column of Table 3) and 3.05 µM (numeric column of Table 3).

For the compound `CC(C)c1nn(CC(=O)NC2CCOC2)c(=O)c2ccc(Br)cc12` (centres unmarked) [Example 52, 2-(6-bromo-1-oxo-4-propan-2-ylphthalazin-2-yl)-N-(oxolan-3-yl)acetamide], the IC50 runs as follows: (class column of Table 3) < 10 µM; (numeric column of Table 3) 2.53 µM.

Take `O=C(Cn1nc(CF)c2cc(Br)ccc2c1=O)Nc1ncc(F)cn1` [Example 142, 2-[6-bromo-4-(fluoromethyl)-1-oxophthalazin-2-yl]-N-(5-fluoropyrimidin-2-yl)acetamide]: the IC50 (class column of Table 3) is < 10 µM and the half-inhibitory concentration (IC50) (numeric column of Table 3) turned out to be 0.091 µM.

With `O=C(Cn1nc(OC2CC2)c2cc(Br)ccc2c1=O)N[C@@H]1CCCN(C2CCC2)C1` [Example 177], the IC50 is < 10 µM (class column of Table 3) and 0.213 µM (numeric column of Table 3).

`O=C(Cn1nc(C(F)F)c2c(F)c(Br)ccc2c1=O)Nc1ncc(F)cn1` [Example 26, 2-[6-bromo-4-(difluoromethyl)-5-fluoro-1-oxophthalazin-2-yl]-N-(5-fluoropyrimidin-2-yl)acetamide]: the IC50 runs as follows: (class column of Table 3) < 10 µM; (numeric column of Table 3) 0.078 µM.

On to `CC(C)c1nn(CC(=O)Nc2ncncc2F)c(=O)c2cc(Br)c(F)cc12` [Example 86, 2-(7-bromo-6-fluoro-1-oxo-4-propan-2-ylphthalazin-2-yl)-N-(5-fluoropyrimidin-4-yl)acetamide], for which the half-maximal inhibitory concentration (IC50) was > 15 µM (class column of Table 3) and > 50 µM (numeric column of Table 3).

Regarding `CCN1CCC[C@@H](NC(=O)Cn2nc(C(C)C)c3cc(C)ccc3c2=O)C1` [Example 4], the IC50 is, setting by setting: (class column of Table 3) < 10 µM; (numeric column of Table 3) 1.83 µM.

For `CC(c1ccc2c(=O)n(CC(=O)Nc3ncncc3F)nc(Br)c2c1)C(F)(F)F` (centres unmarked) [Example 18, 2-[4-bromo-1-oxo-6-(1,1,1-trifluoropropan-2-yl)phthalazin-2-yl]-N-(5-fluoropyrimidin-4-yl)acetamide], the IC50 is 10 to 15 µM (class column of Table 3) and 10.7 µM (numeric column of Table 3).

What is called IC50 is the point on the concentration scale where inhibition reaches its midpoint. Low values mean greater potency, high ones weaker potency.
